Results published in paper PMC4738175 (Cancer letters, 2015).

What was measured:
[1] = cited from earlier work
PK03 cells [2] = experiment: Colony formation assay in PK03 cells; details: Mus musculus, read-out: IC50 dose, PK03 cell growth
phosphorylation of c-RAF = experiment: Western blot of phosphorylated c-RAF in PK03 cells; format: cell-based, mouse; details: PK03 cells, 3, 10 or 30μM, 24 hours
in vivo = details: male, Swiss Webster, mouse, po, 1 mg/kg
sEH [3] = experiment: Plasma oxylipin metabolic profile by LC-MS/MS in mice implanted with PK03 cells; format: in vivo
PK03 tumors = experiment: Histopathology and immunohistochemistry; details: 10mg/kg; for number of MPO-labeled neutrophils/macrophages per high power field: 40X objective lens, P< 0.05 vs control; for tumor morphology vs PK03 control tumors: histopathology
[4] = test system: phosphorylation of MEK1/2 and ERK1/2; experiment: Western blot of phosphorylated MEK1/2 and ERK1/2 in PK03 cells; format: cell-based, mouse; details: PK03 cells, 3, 10 or 30μM, 24 hours
sEH [5] = biological target: T1, sEH (Homo sapiens, UniProt P34913); experiment: sEH enzyme assay; format: biochemical; details: read-out: sEH IC50
T1 sequence (P34913 1-555): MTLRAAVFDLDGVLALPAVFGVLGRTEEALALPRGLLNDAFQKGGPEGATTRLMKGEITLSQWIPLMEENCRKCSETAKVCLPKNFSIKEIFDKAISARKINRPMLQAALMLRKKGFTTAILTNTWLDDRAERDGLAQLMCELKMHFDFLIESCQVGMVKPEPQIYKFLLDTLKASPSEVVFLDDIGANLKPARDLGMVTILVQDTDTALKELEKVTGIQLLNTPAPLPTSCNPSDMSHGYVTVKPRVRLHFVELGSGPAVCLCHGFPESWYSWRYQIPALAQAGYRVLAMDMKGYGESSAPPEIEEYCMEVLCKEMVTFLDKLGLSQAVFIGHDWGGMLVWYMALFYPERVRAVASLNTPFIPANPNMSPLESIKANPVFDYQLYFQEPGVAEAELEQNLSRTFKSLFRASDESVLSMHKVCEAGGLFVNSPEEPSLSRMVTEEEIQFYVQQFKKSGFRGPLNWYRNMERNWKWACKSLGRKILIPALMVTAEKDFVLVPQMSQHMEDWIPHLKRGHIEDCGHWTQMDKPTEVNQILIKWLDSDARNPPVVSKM

phosphorylated ERK1/2 = experiment: Immunohistochemical staining of phosphorylated ERK1/2 in PK03 tumors; details: 10mg/kg, n = 3 mice/group, vs PK03 control
PK03 cells [6] = details: 10mg/kg body weight in drinking water, end of 5 weeks, vs PK03 control
Toxicity in mice = format: in vivo; details: 35 days treatment

CNC(=O)c1cc(Oc2ccc(NC(=O)Nc3ccc(Cl)c(C(F)(F)F)c3)cc2)ccn1 [Sorafenib, reference compound]
clinically achievable plasma concentration [1]: 10 µM | IC50 (PK03 cells [2]): 9 µM | inhibition of phosphorylation of c-RAF (phosphorylation of c-RAF): but not by sorafenib or t-AUCB | Tmax (in vivo): 2 h | half-life (in vivo): 1.5 ± 0.5 h | effect on cyclooxygenase and lipoxygenase mediated metabolites (prostaglandins, thromboxane, leukotrienes, HETE) (sEH [3]): no significant difference | number of MPO-labeled neutrophils/macrophages per high power field (PK03 tumors): 15.1 ± 9.8 | tumor morphology vs PK03 control tumors (PK03 tumors): more glandular differentiation with lumen formation and less inflammatory cells reaction | inhibition of phosphorylation of MEK1/2 and ERK1/2 [4]: significantly inhibited

CNC(=O)c1cc(O[C@H]2CC[C@@H](NC(=O)Nc3ccc(Cl)c(C(F)(F)F)c3)CC2)ccn1 [c-CUPM]
IC50 (sEH [5]): 0.0005 µM

CNC(=O)c1cc(O[C@H]2CC[C@H](NC(=O)Nc3ccc(Cl)c(C(F)(F)F)c3)CC2)ccn1 [t-CUPM, trans-4-{4-[3-(4-chloro-3-trifluoromethyl-phenyl)-ureido]-cyclohexyloxy}-pyridine-2-carboxylic acid methylamide]
staining intensity of phosphorylated ERK1/2 (phosphorylated ERK1/2): 60 ± 19.2 | tumor size (PK03 cells [6]): 275.9 ± 68.9 mm^3 | tumor weight (PK03 cells [6]): 0.25 ± 0.06 g | IC50 (PK03 cells [2]): 8.1 µM | inhibition of phosphorylation of c-RAF (phosphorylation of c-RAF): significantly inhibited | half-life (in vivo): 2.2 ± 1.6 h | effect on cyclooxygenase and lipoxygenase mediated metabolites (prostaglandins, thromboxane, leukotrienes, HETE) (sEH [3]): no significant difference | toxic effect grossly and histopathologically (Toxicity in mice): did not produce any toxic effect | number of MPO-labeled neutrophils/macrophages per high power field (PK03 tumors): 12.4 ± 6.1 | tumor morphology vs PK03 control tumors (PK03 tumors): more glandular differentiation with lumen formation and less inflammatory cells reaction | inhibition of phosphorylation of MEK1/2 and ERK1/2 [4]: significantly inhibited
